Data: patent publication US8575157B2, “Cyclic inhibitors of 11beta-hydroxysteroid dehydrogenase 1” (Vitae Pharmaceuticals, Inc., priority 2010, dated 2013)
Several values for one entry are separate records, joined by “and”; a condition that tells them apart may be missing. Identical values can stand only once. Like-named read-outs stand apart in the source and are kept apart here.

Legend:
[1] = fraction unbound in human plasma (equilibrium dialysis), Biological Test Example 5; format: in vitro ADME; conditions: for Biological Test Example 5 (%): fraction unbound in human plasma
[2] = biological target: human recombinant cytochrome P450 3A4 (Homo sapiens (Human), UniProt P08684); experiment: CYP3A4 inhibition, Biological Test Example 6; format: in vitro ADME
human recombinant cytochrome P450 3A4, sequence (P08684 whole entry): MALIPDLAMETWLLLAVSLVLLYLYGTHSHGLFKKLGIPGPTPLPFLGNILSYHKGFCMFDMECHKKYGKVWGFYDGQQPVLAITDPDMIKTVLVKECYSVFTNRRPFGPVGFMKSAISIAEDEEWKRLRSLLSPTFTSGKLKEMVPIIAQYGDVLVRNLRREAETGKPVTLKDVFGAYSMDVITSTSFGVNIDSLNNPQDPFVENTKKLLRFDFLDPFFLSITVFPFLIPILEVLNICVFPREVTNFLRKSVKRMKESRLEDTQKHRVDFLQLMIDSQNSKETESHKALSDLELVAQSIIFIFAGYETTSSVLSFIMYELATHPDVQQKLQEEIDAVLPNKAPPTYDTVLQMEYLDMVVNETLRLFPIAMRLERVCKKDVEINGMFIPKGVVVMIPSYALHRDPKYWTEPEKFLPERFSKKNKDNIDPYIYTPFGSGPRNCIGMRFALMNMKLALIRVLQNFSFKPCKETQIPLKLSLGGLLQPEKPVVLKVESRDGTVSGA

[3] = biological target: human recombinant cytochrome P450 2C9 (Homo sapiens (Human), UniProt P11712); experiment: CYP2C9 inhibition ([O-methyl-14C]-Naproxen), Biological Test Example 7; format: in vitro ADME
human recombinant cytochrome P450 2C9, sequence (P11712 whole entry): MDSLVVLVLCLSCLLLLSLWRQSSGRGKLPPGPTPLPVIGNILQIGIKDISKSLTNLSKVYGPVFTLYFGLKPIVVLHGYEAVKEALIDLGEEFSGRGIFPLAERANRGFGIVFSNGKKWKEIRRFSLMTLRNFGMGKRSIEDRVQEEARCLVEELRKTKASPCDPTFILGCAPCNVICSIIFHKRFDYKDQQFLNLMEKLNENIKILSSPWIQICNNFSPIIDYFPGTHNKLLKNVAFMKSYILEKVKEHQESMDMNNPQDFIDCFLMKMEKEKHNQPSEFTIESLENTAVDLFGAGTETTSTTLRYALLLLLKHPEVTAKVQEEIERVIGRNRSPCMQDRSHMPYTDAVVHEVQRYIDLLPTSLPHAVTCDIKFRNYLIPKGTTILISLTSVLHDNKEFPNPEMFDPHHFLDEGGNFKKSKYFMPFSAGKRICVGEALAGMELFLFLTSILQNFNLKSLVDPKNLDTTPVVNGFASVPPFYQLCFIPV

[4] = biological target: human recombinant cytochrome P450 2C19 (Homo sapiens (Human), UniProt P33261); experiment: CYP2C19 inhibition, Biological Test Example 8; format: in vitro ADME; conditions: read-out: Biological Test Example 8 CYP2C19, IC50
human recombinant cytochrome P450 2C19, sequence (P33261 whole entry): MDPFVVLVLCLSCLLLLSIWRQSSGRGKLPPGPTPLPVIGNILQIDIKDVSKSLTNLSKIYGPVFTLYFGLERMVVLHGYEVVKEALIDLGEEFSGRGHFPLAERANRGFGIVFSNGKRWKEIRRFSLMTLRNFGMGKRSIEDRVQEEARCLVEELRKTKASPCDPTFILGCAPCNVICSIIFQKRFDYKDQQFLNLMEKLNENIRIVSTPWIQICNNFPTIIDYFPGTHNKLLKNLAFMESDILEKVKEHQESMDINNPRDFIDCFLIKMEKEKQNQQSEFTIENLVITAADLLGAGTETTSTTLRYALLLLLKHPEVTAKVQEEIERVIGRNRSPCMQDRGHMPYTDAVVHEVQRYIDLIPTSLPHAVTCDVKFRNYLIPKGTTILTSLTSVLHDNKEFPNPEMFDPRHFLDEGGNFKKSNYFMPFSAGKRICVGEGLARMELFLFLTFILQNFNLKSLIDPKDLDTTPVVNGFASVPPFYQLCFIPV

human CYP2C9 = human CYP2C9 (Homo sapiens (Human), UniProt P11712); experiment: CYP2C9 inhibition (Invitrogen kit, OOMR fluorogenic substrate), Biological Test Example 9; format: in vitro ADME; conditions: read-out: Biological Test Example 9 CYP2C9 IC50
human CYP2C9, sequence (P11712 whole entry): as the sequence (P11712 whole entry) above

11β-HSD1 = 11β-HSD1 (Homo sapiens (Human), UniProt P28845)
11β-HSD1, sequence (P28845 whole entry): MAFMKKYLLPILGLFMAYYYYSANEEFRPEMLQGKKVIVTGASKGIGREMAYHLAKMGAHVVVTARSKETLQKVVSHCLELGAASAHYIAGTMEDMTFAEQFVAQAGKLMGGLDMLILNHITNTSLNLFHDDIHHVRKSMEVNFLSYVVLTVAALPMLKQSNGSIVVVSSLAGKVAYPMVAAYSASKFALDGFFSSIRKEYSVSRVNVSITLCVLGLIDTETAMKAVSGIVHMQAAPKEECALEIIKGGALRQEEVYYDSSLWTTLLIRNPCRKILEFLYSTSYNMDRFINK

[5] = slurry experiment on stability of the crystal form (XRPD); conditions: 30 minutes
[6] = human recombinant CYP2C19, [N-methyl-14C]-Diazepam

C[C@@H](c1ccc(-c2ccc(=O)n(C)c2)cc1)N1CC[C@](CC(C)(C)N(C)S(C)(=O)=O)(c2ccccc2)OC1=O [Example 12, N-methyl-N-(2-methyl-1-((S)-3-((S)-1-(4-(1-methyl-6-oxo-1,6-dihydropyridin-3-yl)phenyl)ethyl)-2-oxo-6-phenyl-1,3-oxazinan-6-yl)propan-2-yl)methanesulfonamide]
Biological Test Example 5 (fraction unbound in human plasma) [1]: 0.4%
IC50 ([2]; human recombinant CYP3A4): 4.9 µM
IC50 (human CYP2C9; Invitrogen kit, OOMR fluorogenic substrate): 2.5 µM

C[C@@H](c1ccc(-c2ccn(C3CC3)c(=O)c2)cc1)N1CCC(CC(C)(C)C)(CC(C)(C)O)OC1=O (single isomer, unassigned) [Example 94 Isomer 2]
Average % inhibition at 100 nM (11β-HSD1; Biological Test Example 1, listed as EXAMPLE 94 Isomer 2): 8.2%

C[C@@H](c1ccc(-c2ccn(C)c(=O)c2)cc1)N1CC[C@](CC(C)(C)O)(c2ccccc2)OC1=O [Example 48, (S)-6-(2-hydroxy-2-methylpropyl)-3-((S)-1-(4-(1-methyl-2-oxo-1,2-dihydropyridin-4-yl)phenyl)ethyl)-6-phenyl-1,3-oxazinan-2-one]
Biological Test Example 5 (%) [1]: 8.7%
IC50 [2]: > 50 µM
IC50 [3]: > 50 µM
IC50 [4]: > 50 µM
IC50 (human CYP2C9): 30 µM

C[C@@H](c1ccc(-c2ccn(C3CC3)c(=O)c2)cc1)N1CC[C@](CC(C)(C)O)(c2ccccc2)OC1=O [anhydrous form of Example 75, 3-{(S)-1-[4-(1-Cyclopropyl-2-oxo-1,2-dihydro-pyridin-4-yl)-phenyl]-ethyl}-(S)-6-(2-hydroxy-2-methyl-propyl)-6-phenyl-[1,3]oxazinan-2-one]
remaining in the anhydrous state during the measurement by XRPD [5]: did not remain in the anhydrous state

CC[C@@H](c1ccc(-c2ccc(=O)n(C)c2)cc1)N1CC[C@](CC(C)(C)O)(c2ccccc2)OC1=O [Example 54, (S)-6-(2-hydroxy-2-methylpropyl)-3-((S)-1-(4-(1-methyl-6-oxo-1,6-dihydropyridin-3-yl)phenyl)propyl)-6-phenyl-1,3-oxazinan-2-one]
Biological Test Example 5 (%) [1]: 9.1%
IC50 [2]: > 50 µM
IC50 [3]: > 50 µM

C[C@@H](c1ccc(-c2ccc(=O)n(C)c2)cc1)N1CC[C@](CC(C)(C)NS(C)(=O)=O)(c2ccccc2)OC1=O [Example 11, N-(2-methyl-1-((S)-3-((S)-1-(4-(1-methyl-6-oxo-1,6-dihydropyridin-3-yl)phenyl)ethyl)-2-oxo-6-phenyl-1,3-oxazinan-6-yl)propan-2-yl)methanesulfonamide]
Biological Test Example 5 (fraction unbound in human plasma) [1]: 0.7%
IC50 ([2]; human recombinant CYP3A4): 14.1 µM

C[C@@H](c1ccc(-c2ccn(C3CC3)c(=O)c2)cc1)N1CCC(CC(C)(C)O)(C2CCOCC2)OC1=O (single isomer, unassigned) [Example 91 Isomer 2]
Average % inhibition at 100 nM (11β-HSD1; Biological Test Example 1): 13.8%

C[C@@H](c1ccc(-c2ccn(C3CC3)c(=O)c2)cc1)N1CCC(CC(C)(C)C)(CC(C)(C)O)OC1=O (single isomer, unassigned) [Example 94 Isomer 1]
Average % inhibition at 100 nM (11β-HSD1; Biological Test Example 1, listed as EXAMPLE 94 Isomer 1): 41.9%

C[C@@H](c1ccc(-c2ccn(C)c(=O)c2)cc1)N1CC[C@](CC(C)(C)O)(c2ccccc2)OC1=O [anhydrous form of Example 48, (S)-6-(2-hydroxy-2-methylpropyl)-3-((S)-1-(4-(1-methyl-2-oxo-1,2-dihydropyridin-4-yl)phenyl)ethyl)-6-phenyl-1,3-oxazinan-2-one]
remaining in the anhydrous state during the measurement by XRPD [5]: did not remain in the anhydrous state

C[C@@H](c1ccc(-c2ccn(C3CC3)c(=O)c2)cc1)N1CCC(CC(C)(C)O)(C2CC(F)(F)C2)OC1=O (single isomer, unassigned) [Example 95 Isomer 2]
Average % inhibition at 100 nM (11β-HSD1; Biological Test Example 1): 8.0%
